Reference: US20250123268A1, “COMPOSITIONS AND METHODS FOR ACCELERATING DEVELOPMENT OF CANCER THERAPEUTICS” (NetNoids Rx Laboratories, LLC, priority 2023, published 2025)
“Also recorded” adds a separate entry of the source.

What was measured:
TNBC-1 = assay: COMPASS C1/C3a/C3c drug regimen testing, TNBC-1 tumor volume; format: cell-based, human; conditions: for tumor volume (efficacy): 50 nM & 500 nM
Procedure: Methods: COMPASS Platforms for TIME Modeling for Drug Regimen Testing: I.A. C1/C3a/C3c for TNBC-1 against 1) Doxorubicin 50 nM & 500 nM (Control: DMSO 0.01%), 2) Sacituzumab 5 nM & 20 nM [Control: PBS 0.01%] via continuous treatment w/initial administration at post-seeding Day 1; I.B. C2/C3b/C3d for GBC-1 against 1) Gemcitabine+Cisplatin 1 μM & 10 μM (G+C 7:1 ratio) (Control: DMSO 0.03%) 2) Gemcitabine+Cisplatin 1 μM+Durvalumab 0.1 nM; Gemcitabine+Cisplatin 10 μM+Durvalumab 1 nM (Control: DMSO 0.03%) (G+C 7:1 ratio) via continuous treatment w/initial administration at post-seeding Day 3; II. C1/C3b/C3d for HUAS-1 against 1) HSP90i 50 nM & 100 nM, (Control: DMSO 0.01-0.5%), 2) HSP90i 50 nM+Doxorubicin 50 nM & HSP90i 100 nM+Doxorubicin 50 nM, (Control: DMSO 0.01-0.5%) via continuous treatment w/initial administration at post-seeding Day 3; • Experimental Set-Up: Series (C1/C2) & representative parallel experimentation (C3), n=3 per group; • Evaluation: Imaging—Phase Contrast Imaging via Biotek Cytation 5 (Agilent) with partial well plug for object selection ([…] for C1/C2 & […] for C3) towards tumor volume analysis at Timepoints Day 3 and Day 7/10; • Statistics: One-way ANOVA followed by Tukey's pairwise comparison, n=3, (p<0.05).
FIGS. 28A-L: Common Cancers (TNBC and GBC) vs Established Drug Regimens (Doxorubicin/Sacituzumab and Gemcitabine+Cisplatin+/−Durvalumab, respectively) treatment profiles across progressing, appropriately-matched COMPASS Platforms at Day 3 and Day 10 Timepoints. Compass 1 is used for small molecules. Compass 2 is used in studies when Durvalumab (which is an anti-PDL 1 inhibitor) is added and it works by using the immune system (checkpoint inhibitor), which makes the immune system […]. Sub-studies highlighting the versatility of COMPASS platforms in the generation of specific Tumor-Immune-Microenvironment Models—designed appropriately for intended drug mechanism testing of already clinically-approved treatment regimens. […]

[1] = system: PDL-1 positive PDT of TNBC; assay: PDL-1 positive TNBC PDT tumor volume, anti-PD1 treatment, with/without PBMCs (COMPASS 2); format: cell-based, human; conditions: same model without the addition of PBMCs
Procedure: All experiments were conducted with n=3 replicates and data was analyzed by One Way ANOVA followed by student's t-test to check for statistical significance.

COc1cccc2c1C(=O)c1c(O)c3c(c(O)c1C2=O)C[C@@](O)(C(=O)CO)C[C@@H]3O[C@H]1C[C@H](N)[C@H](O)[C@H](C)O1 [Doxorubicin]
tumor volume (efficacy) (TNBC-1; C1 model): slight efficacy
tumor volume (efficacy) (TNBC-1; C3 models): potential resistance

Pembrolizumab [anti-PD1 inhibitor]
immune checkpoint mediated reduction in tumor volume [1]: not observed

Sacituzumab
tumor volume vs control (TNBC-1; 5 nM & 20 nM, supplemental structural matrix & oxygenation (C3c), p=0.04): revealed efficacy in oxygenated conditions; also recorded: tumor volume reduction vs control
